Experimental data published in patent US20220323406A1, “METHODS AND COMPOSITIONS FOR DIFFERENTIATING STEM CELLS” (Massachusetts Institute of Technology, priority 2019, published 2022).

Tests used:
[1] = tested on: ENR+CD organoids (ISC to Paneth cell differentiation); test: Primary screen: basal (non-stimulated) lysozyme secretion LYZ.NS, 2.5-D 384-well ENR+CD organoid differentiation; assay type: cell-based, mouse
Excerpt: (§1) High-throughput screening.

ENR+CD organoids = test: Primary screen: ATP (CellTiter-Glo 3D, CTG) cell number/viability, 2.5-D 384-well ENR+CD organoids;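 also: compounds given at plating and again on day 3 over a 6-day differentiation from ENR+CV stem-cell-enriched precursors, ATP measured on day 6, plate median as control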
[2] = tested on: ENR+CD organoids (ISC to Paneth cell differentiation); test: Primary screen: CCh-stimulated lysozyme secretion LYZ.S, 2.5-D 384-well ENR+CD organoid differentiation; assay type: cell-based, mouse; conditions: primary screen
Excerpt: as §1

[3] = primary screen, standard z score, dose 0.08 uM
[4] = primary screen, standard z score, dose 0.40 uM
[5] = primary screen, standard z score, dose 2.00 uM
[6] = primary screen, standard z score, dose 10.00 uM
[7] = primary screen, dose 0.08 uM, standard z score
[8] = primary screen, dose 0.40 uM, standard z score
[9] = primary screen, dose 2.00 uM, standard z score
[10] = primary screen, dose 10.00 uM, standard z score
[11] = primary screen; dose 0.08 uM; FC vs plate median
[12] = primary screen; dose 0.40 uM; FC vs plate median
[13] = primary screen; dose 2.00 uM; FC vs plate median
[14] = primary screen; dose 10.00 uM; FC vs plate median
[15] = primary screen, dose 0.08 uM, FC relative to plate median
[16] = primary screen, dose 0.40 uM, FC relative to plate median
[17] = primary screen, dose 2.00 uM, FC relative to plate median
[18] = primary screen, dose 10.00 uM, FC relative to plate median
[19] = dose 0.08 uM, FC relative to plate median
[20] = dose 0.40 uM, FC relative to plate median
[21] = dose 2.00 uM, FC relative to plate median
[22] = dose 10.00 uM, FC relative to plate median

Structure (SMILES)	Z.LYZ.NS [1, 7]	Z.LYZ.NS [1, 8]	Z.LYZ.NS [1, 9]	Z.LYZ.NS [1, 10]	Z.CTG (ENR+CD organoids; [7])	Z.CTG (ENR+CD organoids; [8])	Z.CTG (ENR+CD organoids; [9])	Z.CTG (ENR+CD organoids; [10])	Dose.FC.LYZ.NS [1, 15] [log2 fold change]	Dose.FC.LYZ.NS [1, 16] [log2 fold change]	Dose.FC.LYZ.NS [1, 17] [log2 fold change]	Dose.FC.LYZ.NS [1, 18] [log2 fold change]	Dose.FC.CTG (ENR+CD organoids; [15]) [log2 fold change]	Dose.FC.CTG (ENR+CD organoids; [16]) [log2 fold change]	Dose.FC.CTG (ENR+CD organoids; [17]) [log2 fold change]	Dose.FC.CTG (ENR+CD organoids; [18]) [log2 fold change]	Dose.FC.LYZ.S [2, 19] [log2 fold change]	Dose.FC.LYZ.S [2, 20] [log2 fold change]	Dose.FC.LYZ.S [2, 21] [log2 fold change]	Dose.FC.LYZ.S [2, 22] [log2 fold change]	other results
Cc1ccc([C@@H]2O[C@H](CO)[C@@H](O)[C@H](O)[C@H]2O)cc1Cc1ccc(-c2ccc(F)cc2)s1 [Canagliflozin]	–	–	–	–	–	–	–	–	–	–	–	–	–	–	–	–	–	–	–	–	Dose.FC.LYZ.NS ([1]; primary screen, dose 0.08 uM): −0.027 log2 fold change; Dose.FC.LYZ.NS ([1]; primary screen, dose 0.40 uM): −0.046 log2 fold change; Dose.FC.LYZ.NS ([1]; primary screen, dose 2.00 uM): 0.025 log2 fold change; Dose.FC.LYZ.NS ([1]; primary screen, dose 10.00 uM): −0.064 log2 fold change; Z.LYZ.NS [1, 3]: −0.233; Z.LYZ.NS [1, 4]: −0.398; Z.LYZ.NS [1, 5]: 0.214; Z.LYZ.NS [1, 6]: −0.556; Dose.FC.CTG (ENR+CD organoids; primary screen, dose 0.08 uM): −0.240 log2 fold change; Dose.FC.CTG (ENR+CD organoids; primary screen, dose 0.40 uM): −0.098 log2 fold change; Dose.FC.CTG (ENR+CD organoids; primary screen, dose 2.00 uM): 0.042 log2 fold change; Dose.FC.CTG (ENR+CD organoids; primary screen, dose 10.00 uM): −0.079 log2 fold change; Z.CTG (ENR+CD organoids; [3]): −0.572; Z.CTG (ENR+CD organoids; [4]): −0.235; Z.CTG (ENR+CD organoids; [5]): 0.101; Z.CTG (ENR+CD organoids; [6]): −0.188; Dose.FC.LYZ.S ([2]; dose 0.08 uM): 0.014 log2 fold change; Dose.FC.LYZ.S ([2]; dose 0.40 uM): −0.032 log2 fold change; Dose.FC.LYZ.S ([2]; dose 2.00 uM): 0.028 log2 fold change; Dose.FC.LYZ.S ([2]; dose 10.00 uM): −0.033 log2 fold change
COc1ccccc1S(=O)(=O)Nc1ccc2c(c1)CN(C)C(=O)N2 [PFI-1 (PF-6405761)]	0.538	0.691	−0.852	−0.573	0.340	0.931	0.770	−0.929	–	–	–	–	–	–	–	–	–	–	–	–	Dose.FC.LYZ.NS [1, 11]: 0.062 log2 fold change; Dose.FC.LYZ.NS [1, 12]: 0.079 log2 fold change; Dose.FC.LYZ.NS [1, 13]: −0.098 log2 fold change; Dose.FC.LYZ.NS [1, 14]: −0.066 log2 fold change; Dose.FC.CTG (ENR+CD organoids; [11]): 0.142 log2 fold change; Dose.FC.CTG (ENR+CD organoids; [12]): 0.390 log2 fold change; Dose.FC.CTG (ENR+CD organoids; [13]): 0.322 log2 fold change; Dose.FC.CTG (ENR+CD organoids; [14]): −0.389 log2 fold change; Dose.FC.LYZ.S ([2]; dose 0.08 uM, FC vs plate median): 0.061 log2 fold change; Dose.FC.LYZ.S ([2]; dose 0.40 uM, FC vs plate median): 0.104 log2 fold change; Dose.FC.LYZ.S ([2]; dose 2.00 uM, FC vs plate median): −0.117 log2 fold change; Dose.FC.LYZ.S ([2]; dose 10.00 uM, FC vs plate median): −0.194 log2 fold change
CNC(=O)c1ccccc1Nc1nc(Nc2ccc(N3CCOCC3)cc2OC)ncc1Cl [TAE226 (NVP-TAE226)]	−2.226	−2.650	−2.813	−2.545	−1.127	−2.689	−3.068	−2.363	−0.256	−0.304	−0.323	−0.292	−0.472	−1.126	−1.284	−0.989	−0.333	−0.376	−0.400	−0.426	–
CC(C)N(CCCNC(=O)Nc1ccc(C(C)(C)C)cc1)C[C@H]1O[C@@H](n2cc(Br)c3c(N)ncnc32)[C@H](O)[C@@H]1O [SGC0946]	0.787	−0.236	1.738	0.516	–	–	–	–	0.090	−0.027	0.200	0.059	0.052	−0.122	−0.082	−0.142	0.145	−0.098	0.220	0.065	–
